Where “and” joins values, the source holds several entries; their conditions need not be identical. Identical values can stand only once. After the bases stand the sugars from the 5' end (letter, count) and the backbone: PS all phosphorothioate, else s phosphorothioate and o phosphodiester by linkage. Methylation of C is not given here. e = 2'-O-(2-methoxyethyl) (MOE); k = constrained ethyl (cEt); d = 2'-deoxy (DNA)

One data set has as its target IRF4. The note with it: ASO, H929, 0.04 µM.
For the sequence “TGTGTATTACTCTTAG (sugars kkdddddddddkdkdk, PS)”, the target mRNA inhibition is 40% and 47%.

The same data set, now with this note: ASO, KMS11, 0.2 µM.
Turning to “TGTGTATTACTCTTAG (sugars kkdddddddddkdkdk, PS)”, the target mRNA inhibition was 62% and 74%.

The same data set, now with this note: ASO, MM.1R, 0.0625 µM.
For the sequence “TGGTTGGCTGGTCTTT (sugars kkddddddddddkeke, PS)”, the target mRNA inhibition is 41%. On the same count and under the same terms, the result for TGTGTATTACTCTTAG (sugars k3 d10 k3, PS) reads 3%; that for “TGTGTATTACTCTTAG (sugars kkdddddddddkdkdk, PS)”, 54%.

The data set is the same for the next values; noted with them: ASO, MM.1R, 0.25 µM.
For “TGGTTGGCTGGTCTTT (sugars kkddddddddddkeke, PS)”, the target mRNA inhibition was determined as 56%. Still for that read-out and setting: the result for TGTGTATTACTCTTAG (sugars k3 d10 k3, PS) reads 20%. Turning to “TGTGTATTACTCTTAG (sugars kkdddddddddkdkdk, PS)”, the target mRNA inhibition amounted to 62%.

The data set is the same for the next values; noted with them: ASO, MM.1R, 1 µM.
With “TGGTTGGCTGGTCTTT (sugars kkddddddddddkeke, PS)”, the target mRNA inhibition is 80% and 68%. Same read-out and setting: the result for TGTAACTGACTAACAG (sugars k3 d10 k3, PS) reads -31%; that for TGTAGAAGCCCACAAG (sugars k3 d10 k3, PS), -7%; that for “TGTAGTATGAGAAACG (sugars k2 d9 e3 k2, PS)”, 7%. Regarding “TGTAGTATGAGAAACG (sugars kkdddddddddekeke, PS)”, the target mRNA inhibition was found to be 13%. On the same count and under the same terms, with TGTGAACCTGCTAAAG (sugars k3 d10 k3, PS) the figure was -10%. The same measure, in the same setting: with “TGTGATAGCTGAGCTG (sugars kdddddddddkekeke, PS)” the figure was 18%. The same measure, in the same setting: with “TGTGCTTGCCAAGCCT (sugars kdddddddddkekeke, PS)” the figure was -3% and 16%. For the sequence “TGTGCTTGCCAAGCCT (sugars kkddddddddddkeke, PS)”, the target mRNA inhibition was 26% and 30%. Turning to “TGTGCTTGCCAAGCCT (sugars kkdddddddddkekek, PS)”, the target mRNA inhibition was 2% and 18%. On the same count and under the same terms, the result for “TGTGTATTACTCTTAG (sugars k2 d9 e3 k2, PS)” reads 41% and 24%. Same read-out and setting: the result for TGTGTATTACTCTTAG (sugars k3 d10 k3, PS) reads 75% and 62%; that for “TGTGTATTACTCTTAG (sugars kkddddddddddkeke, PS)”, 51% and 39%. “TGTGTATTACTCTTAG (sugars kkdddddddddkdkdk, PS)”: the target mRNA inhibition was 81% and 71% and 72%.

“TGTTACCGATGCTTCA (sugars k2 d9 e3 k2, PS)”: the target mRNA inhibition is 31% and 39%. Still for that read-out and setting: the result for “TGTTACCGATGCTTCA (sugars kddddddddddkekek, PS)” reads 26% and 18%; that for “TGTTACCGATGCTTCA (sugars kkdddddddddkdkdk, PS)”, 35% and 26%; that for TTACGCTTATTTTTCC (sugars k3 d10 k3, PS), 39%. On the same count and under the same terms, with TTACTCCGCTGAGTGG (sugars k3 d10 k3, PS) the figure was -4%; with TTACTCTTAGGCACAT (sugars k3 d10 k3, PS), 44% and 45%; with TTACTGTTACCGATGC (sugars k3 d10 k3, PS), 26% and 35%.

Turning to TTAGCCAATTCCTCCA (sugars k3 d10 k3, PS), the target mRNA inhibition was 36% and 47%. Consider “TTATATACTGGTTGGT (sugars kkdddddddddekeke, PS)”, for which the target mRNA inhibition stood at 64%. On the same count and under the same terms, with “TTATATACTGGTTGGT (sugars kkdddddddddkekek, PS)” the figure was 50%. The same measure, in the same setting: the result for TTATCATCCGAAAAGA (sugars k3 d10 k3, PS) reads 4%; that for “TTATGTTAGCCAATTC (sugars kkdddddddddkekek, PS)”, 11% and 19%. Same read-out and setting: with TTCACACTGCCGTGAT (sugars k3 d10 k3, PS) the figure was -12%; with TTCATGTAAAGTCTGC (sugars k3 d10 k3, PS), 57% and 55%; with TTCCGGGTGTGGCTGA (sugars k3 d10 k3, PS), 25%.

As to “TTGATGTGATAGCTGA (sugars kddddddddddkekek, PS)”, the target mRNA inhibition is 12%. On the same count and under the same terms, with “TTGATGTGATAGCTGA (sugars kdddddddddkekeke, PS)” the figure was 34%; with “TTGATGTGATAGCTGA (sugars kkdddddddddekeke, PS)”, 28%; with TTGCTAGATTCTCCCT (sugars k3 d10 k3, PS), 16%. As for “TTGGTTGGCTGGTCTT (sugars kdddddddddkekeke, PS)”, the target mRNA inhibition is -7%. For “TTGGTTGGCTGGTCTT (sugars kkdddddddddkdkdk, PS)”, the target mRNA inhibition was found to be 55%. Turning to TTTACACCGTTGCTCA (sugars k3 d10 k3, PS), the target mRNA inhibition was 3%. Same read-out and setting: with TTTTGGCTCCCTCAGG (sugars k3 d10 k3, PS) the figure was -3%.

The data set is the same for the next values; noted with them: ASO, MM.1R, 4 µM.
Take “TGGTTGGCTGGTCTTT (sugars kkddddddddddkeke, PS)”: the target mRNA inhibition was 85%.

With TGTGTATTACTCTTAG (sugars k3 d10 k3, PS), the target mRNA inhibition is 93%. In the case of “TGTGTATTACTCTTAG (sugars kkdddddddddkdkdk, PS)”, the target mRNA inhibition came out at 91%.

The same data set, now with this note: ASO, SK-MEL-28, 4 µM.
Consider TGTAACAGGCTATCAG (sugars k3 d10 k3, PS), for which the target mRNA inhibition is 31%. Still for that read-out and setting: the result for TGTAAGTGATAGGTAT (sugars k3 d10 k3, PS) reads 53%; that for TGTAGTATGAGAAACG (sugars k3 d10 k3, PS), 69%; that for TGTCAAACCCTACTGG (sugars k3 d10 k3, PS), 23%.

For TGTCAAACTATAATTG (sugars k3 d10 k3, PS), the target mRNA inhibition came out at 15%.

Take TGTCAATACTGAAAGG (sugars k3 d10 k3, PS): the target mRNA inhibition is 36%. On the same count and under the same terms, with TGTGAAGCATCCTTTC (sugars k3 d10 k3, PS) the figure was 45%. Same read-out and setting: the result for TGTTACTTGCCACAGT (sugars k3 d10 k3, PS) reads 39%; that for TTAAACAGTGCCCAAG (sugars k3 d10 k3, PS), 21%. Same read-out and setting: the result for TTAAAGATGCCAGAGG (sugars k3 d10 k3, PS) reads 28%; that for TTAAAGGAGTGCAGGA (sugars k3 d10 k3, PS), 16%. Consider TTAACCAATCCCAACA (sugars k3 d10 k3, PS), for which the target mRNA inhibition was found to be 30%.

TTAAGATTTATGTTCC (sugars k3 d10 k3, PS): the target mRNA inhibition was 64%. Still for that read-out and setting: the result for TTAATCTGTCTAAACC (sugars k3 d10 k3, PS) reads 16%. Same read-out and setting: with TTACATCTTACTTCCC (sugars k3 d10 k3, PS) the figure was 42%; with TTACCATTTTCACAAG (sugars k4 d8 k4, PS), 7%. Consider TTACGAGAGGGTCTGA (sugars k3 d10 k3, PS), for which the target mRNA inhibition was found to be 51%. On the same count and under the same terms, with TTACTAACTGGCTTCC (sugars k3 d10 k3, PS) the figure was 49%. Turning to TTACTAGGTGCTTGTT (sugars k3 d10 k3, PS), the target mRNA inhibition is 50%.

On to TTACTTAGACATTACT (sugars k3 d10 k3, PS), for which the target mRNA inhibition worked out at 48%. Take TTACTTCCCTGAGAAA (sugars k3 d10 k3, PS): the target mRNA inhibition is 20%.

With TTAGAATGCATAACAC (sugars k3 d10 k3, PS), the target mRNA inhibition stood at 44%. Same read-out and setting: with TTAGACTGACAGCCGA (sugars k3 d10 k3, PS) the figure was 53%; with TTAGAGGACAGTGACT (sugars k3 d10 k3, PS), 18%; with TTATACTGTCTGGTTA (sugars k3 d10 k3, PS), 44%. With TTATCTTCCCTTAGGA (sugars k3 d10 k3, PS), the target mRNA inhibition was 28%. Consider TTATGGACCACGCAGC (sugars k3 d10 k3, PS), for which the target mRNA inhibition came out at 31%.

For TTATTAAGTCAATCAC (sugars k3 d10 k3, PS), the target mRNA inhibition was -1%. Same read-out and setting: the result for TTCAACAGCACTGTCC (sugars k3 d10 k3, PS) reads 65%; that for TTCACGCACCATTCAG (sugars k3 d10 k3, PS), 16%.

In the case of TTCAGACAGATGCAGC (sugars k3 d10 k3, PS), the target mRNA inhibition came to 62%. For TTCAGTTGTAAATGAG (sugars k3 d10 k3, PS), the target mRNA inhibition amounted to 56%. The same measure, in the same setting: with TTCCAACAGGCGGACA (sugars k3 d10 k3, PS) the figure was 43%. Still for that read-out and setting: with TTCCAACCTTTATGAT (sugars k3 d10 k3, PS) the figure was 7%; with TTCCAGCAAGACCTAA (sugars k3 d10 k3, PS), 27%; with TTCCATGCTTGTCTCG (sugars k3 d10 k3, PS), 62%. The same measure, in the same setting: with TTGAAAGATTCAGCCT (sugars k3 d10 k3, PS) the figure was 3%. With TTGAAATAAGCTCATC (sugars k3 d10 k3, PS), the target mRNA inhibition was found to be 33%.

In the case of TTGAAATGGAGCATCC (sugars k3 d10 k3, PS), the target mRNA inhibition came out at 22%. Still for that read-out and setting: with TTGAATAGAGGAATGG (sugars k3 d10 k3, PS) the figure was 42%; with TTGATAAAGGCTGAAC (sugars k3 d10 k3, PS), 67%; with TTGCATCCATGTCAAC (sugars k3 d10 k3, PS), 47%. The same measure, in the same setting: with TTGCCTTCGCTCACTC (sugars k3 d10 k3, PS) the figure was 22%; with TTGCTCTTGTTCAAAG (sugars k3 d10 k3, PS), 29%. Still for that read-out and setting: the result for TTGGAAAGACAAGTGC (sugars k3 d10 k3, PS) reads 15%.

On to TTGTCATGGTGTAGGG (sugars k3 d10 k3, PS), for which the target mRNA inhibition is 41%. In the case of TTGTGAAGCATCCTTT (sugars k3 d10 k3, PS), the target mRNA inhibition is 63%. Still for that read-out and setting: with TTGTGGACACTTTTAG (sugars k3 d10 k3, PS) the figure was 49%; with TTTATATATGACGACT (sugars k3 d10 k3, PS), 39%; with TTTATGGACCACGCAG (sugars k3 d10 k3, PS), 38%. For the sequence TTTGAAGCAACACGGG (sugars k3 d10 k3, PS), the target mRNA inhibition turned out to be 47%.

On to TTTTAGTGTTACTTGC (sugars k3 d10 k3, PS), for which the target mRNA inhibition came to 32%.

For the sequence TTTTATATATGACGAC (sugars k3 d10 k3, PS), the target mRNA inhibition worked out at 34%. Same read-out and setting: with TTTTATGGACCACGCA (sugars k3 d10 k3, PS) the figure was 31%.
